No end group written: not given here.
What was measured:
Type in all cases: in vivo, rat
[1] = tested on: systemic complement activity; assay: Complement hemolytic assay (sensitized human erythrocytes) with plasma of injected neonatal rats
Protocol: Complement activity was assayed in plasma after i.p. injection of PIC1 in term-equivalent neonatal rats. At post-natal day 7 (P7; day of birth=P1), the rat brain is histologically similar to that of a 32- to 34-week gestation human fetus or newborn infant, i.e., cerebral cortical neuronal layering is complete, the germinal matrix is involuting, and white matter as yet has undergone little myelination. Hypoxic-ischemic brain damage in the 7-day-old rat pups is induced with unilateral common carotid artery ligation followed by systemic hypoxia produced by the inhalation of 8% oxygen/balance nitrogen, at constant temperature (37° C.) (Vanucci et al. 2005. Dev Neurosci, Vol. 27, pages 81-86).
Timed pregnant Wistar rats (Hilltop Lab Animals Inc., Scottdale, Pa.) were purchased at embryonic day 19, housed individually, and allowed to deliver spontaneously. Pups were randomized on the day of birth to control for the litter effect (10/litter). At P10-12 (term-equivalent), pups were randomly assigned to 4 different treatment groups: no intervention (control), normothermia (NT), hypothermia-treated vehicle controls (HT), and treatment (PIC1). NT and HT animals were injected with the vehicle used to suspend PIC1. Experimental animals underwent unilateral carotid ligation followed by exposure to hypoxia (8% O2/balanced nitrogen, Vannucci model) for 45 minutes. Pups in the HT group were placed in open jars in a temperature controlled chamber set to 28-30° C. to maintain a target rectal temperature of 31-32° C. for 6 hours, while pups in the control, NT, and PIC1 groups were kept in a separate chamber at 37° C. Pups in the PIC1 group were injected with 2 doses of PIC1 (160 mg/kg, i.p.), with the first dose at the time of carotid ligation, and the second dose four hours later. After intervention, pups were placed back with the dam, and harvested at different time points.
Cobra-venom factor (CVF) was injected i.p. into one group of animals to deplete complement activity in vivo 24 hours prior to carotid ligation. On the day of surgery, a group of animals was injected with 160 mg/kg of PIC1 i.p. at the time of carotid ligation. The animals were harvested at 0.5-48 hours after injection, and plasma was collected by cardiac puncture.
Human AB erythrocytes were derived from healthy human volunteers. The erythrocytes were sensitized as described in Bonaparte et al. using rat anti-human glycophorin A IgG (LifeSpan Biosciences, Inc., Seattle, Wash.). Sensitized cells (5×10^7), serum, and GVBS^++ (Veronal-buffered saline, 0.1% gelatin, 0.15 mM CaCl2, and 1.0 mM MgCl) were combined in a total volume of 375 μl , and incubated for 1 hour at 37° C. in borosilicate glass tubes. […] The tubes were centrifuged and the absorbance of the supernatants was measured in a spectrophotometer at 412 nm.

[2] = tested on: C3aR; assay: Whole brain C3aR expression, Western blotting and immunofluorescence; settings: PIC1 group versus NT animals, P<0.05
Protocol: After blocking for one hour at room temperature, tissues were incubated with 1:300 goat anti-Iba1 (Abcam), 1:250 goat anti-GFAP (Abcam), 1:500 chicken anti-NeuN (Millipore, Billerica, Mass.), or 1:100 mouse anti-NeuN (Millipore) in host appropriate blocking serum overnight at 4° C. Primary antibodies were probed with 1:500 donkey anti-goat (Abcam), goat anti-chicken (Abcam), or goat anti-mouse (Abcam) AF 488 or 568 in appropriate blocking serum for one hour at room temperature. Tissues were blocked a second time with NGS for one hour at room temperature. Samples were then probed with 1:300 mouse anti-C1q (Abcam), 1:300 rabbit anti-C9, 1:50 rabbit anti-MPO (Abcam), 1:200 rabbit anti-TMEM (Novus Bio, Centennial, Colo.), 1:100 rabbit anti-C3aR (Bioss), 1:100 Mouse anti-C5aR (Hycult), or 1:200 chicken anti-C3/C3a (Abcam) in NGS overnight at 4° C. and then with 1:500 goat anti-mouse, rabbit, or chicken (Abcam) AF 488 or 568 in NGS for one hour at room temperature.
Without wishing to be bound by theory, C3a is generated at the convergence of all known complement activation pathways (i.e., the classical, alternate and lectin pathways). To investigate further, C3aR levels in the brain were measured by Western blotting and immunofluorescence (FIG. 5). Western blotting was performed as follows. […]

[3] = tested on: C9; assay: Immunofluorescence quantification of C9 in brain; settings: ipsilateral cortex and hippocampus, 48 hours, versus NT, P<0.05
Protocol: TUNEL/C1q staining was performed as follows. Five (5) μm paraffin-embedded coronal brain sections on slides were incubated (1 hour; 60° C.), deparaffinized with xylene, and rehydrated with ethanol (100%, 95%, 70%; RT). Endogenous peroxidase activity was blocked (0.3% H2O2/MeOH; 10 minutes; RT), and heat induced antigen retrieval was performed (when indicated) using 10 mM sodium citrate, pH 6.0. 10% normal serum (from the same species as the host of the secondary antibody) was used to block and to dilute antibodies. Samples were washed twice for 10 min each, in PBST between each step.
After blocking for one hour at room temperature, tissues were incubated with 1:300 goat anti-Iba1 (Abcam), 1:250 goat anti-GFAP (Abcam), 1:500 chicken anti-NeuN (Millipore, Billerica, Mass.), or 1:100 mouse anti-NeuN (Millipore) in host appropriate blocking serum overnight at 4° C. Primary antibodies were probed with 1:500 donkey anti-goat (Abcam), goat anti-chicken (Abcam), or goat anti-mouse (Abcam) AF 488 or 568 in appropriate blocking serum for one hour at room temperature. Tissues were blocked a second time with NGS for one hour at room temperature. […]

Substance: IALILEPICCQERAA-dPEG24 (cysteine pairing not given here) [PIC1]
- inhibition of systemic complement activation ([1]; 30 minutes after i.p. injection, 160 mg/kg, plasma): 70%
- return of complement activity to baseline, time after injection ([1]; gradual return after i.p. injection, 160 mg/kg): ≤ 8 h
- systemic complement inhibition at 0.5, 1, 2 and 4 hours after injection ([1]; versus untreated NT animals, P<0.05): significant systemic complement inhibition
- complement activity at 8, 16 and 48 hours after injection ([1]; versus untreated controls): comparable to that of untreated controls
- whole brain C3aR expression [2]: significantly higher
- C9 expression [3]: decreased expression
